Assay results as given in US20190234936A1 (priority 2016, published 2019).

System: human neutrophils
Format: cell-based

`CCCCCCCCCCCCCC(=O)O[C@@H]1[C@@H](C)[C@@]2(O)[C@@H](C=C(CO)C[C@]3(O)C(=O)C(C)=C[C@@H]23)[C@@H]2C(C)(C)[C@]12OC(C)=O` [PMA, phorbol 12-myristate 13-acetate] was tested, and the “NET formation (DNA staining)” value was “abundant lattices of extracellular NET-DNA filaments”.
